Laboratory results published in patent US8945632B2, “Methods and compositions for inhibiting the nuclear factor κB pathway” (Ben Gurion University of the Negev R&D Authority, priority 2010, dated 2015).

Experiments:
L428 cells = test: XTT cell survival, NUP combined with chemotherapeutic drugs; assay type: cell-based, human; settings: Bortezomib 0.9 ng/ml, same conditions, data not shown
[1] = system: B16 melanoma cells in C57BL/6 mice; test: Experimental lung metastasis of B16 melanoma cells; assay type: in vivo; settings: NUP 20 mg/kg or cisplatin 4 mg/kg, day 0 to day 14, lungs excised day 18
Description: C57BL/6 mice were treated with an intravenous injection of B16 melanoma cells (3*10^5 cells/[…]). […] Control animals received only vehicle. Lungs were excised on day 18. Metastatic nodules are black (FIG. 11).

SMILES	Combined effect on cell survival with NUP (L428 cells)	Number of lung metastatic nodules, single agent [1]
CC(C)C[C@H](NC(=O)[C@H](Cc1ccccc1)NC(=O)c1cnccn1)B(O)O [Bortezomib]	additive to NUP and not synergistic	
N.N.[Cl][Pt][Cl] [cisplatin]		reduced the number of lung metastatic nodules
